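Exposure lasted 48 hours, with cells grown in 96-well plates and compounds tested at five concentrations. At the GI50, growth is halved.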 Active and inactive are the calls of the source. Rule as the data show it: active = GI50 up to about 1.1 µM and inactive = higher.
Experiments:
Assay in all cases: growth of human tumour cells (NCI), 48 h
LXFL 529 = test system: LXFL 529
SK-MEL-5 = test system: SK-MEL-5
SK-OV-3 = test system: SK-OV-3
LOX IMVI = test system: LOX IMVI
SNB-19 = test system: SNB-19
SR = test system: SR
KM12 = test system: KM12
HCT-15 = test system: HCT-15
786-0 = test system: 786-0
HOP-62 = test system: HOP-62
OVCAR-4 = test system: OVCAR-4
HCT-116 = test system: HCT-116
ACHN = test system: ACHN
A549 = test system: A549
HL-60 = test system: HL-60
OVCAR-5 = test system: OVCAR-5
DU-145 = test system: DU-145
MDA-MB-231 = test system: MDA-MB-231
MDA-MB-435 = test system: MDA-MB-435
T47D = test system: T47D

Row | SMILES | GI50 (LXFL 529) | GI50 (SK-MEL-5) | GI50 (SK-OV-3) | GI50 (LOX IMVI) | GI50 (SNB-19) | GI50 (SR) | GI50 (KM12) | GI50 (HCT-15) [µM] | GI50 (786-0) | GI50 (HOP-62) | GI50 (OVCAR-4) | GI50 (HCT-116) | GI50 (ACHN) | GI50 (A549) | GI50 (HL-60) | GI50 (OVCAR-5) | GI50 (DU-145) | GI50 (MDA-MB-231) | GI50 (MDA-MB-435) | GI50 (T47D)
1 | COc1c(Cl)c2c(c(OC)c1OC)-c1ccc(OC)c(=O)c(Cl)c1C(NC(C)=O)CC2 (stereo not given) | 0.243 µM (active) | 0.141 µM (active) | 0.133 µM (active) | 0.296 µM (active) | 1.43 µM (inactive) | 0.444 µM (active) | 0.104 µM (active) | 0.356 | 0.308 µM (active) | 0.306 µM (active) | 27.1 µM (inactive) | 0.125 µM (active) | 0.668 µM (active) | 0.225 µM (active) | 0.169 µM (active) | – | – | – | – | –
2 | COc1cc(C2c3cc4c(cc3[C@@H](OCCN(C)C)C3COC(=O)[C@H]23)OCO4)cc(OC)c1O (stereo not given in full) | 2.79 µM (inactive) | 0.183 µM (active) | 0.163 µM (active) | 0.145 µM (active) | 0.207 µM (active) | < 0.01 µM (active) | 0.723 µM (active) | 0.971 | 0.139 µM (active) | 0.045 µM (active) | 2.07 µM (inactive) | 1.04 µM (active) | 0.1 µM (active) | 0.0655 µM (active) | 0.036 µM (active) | 0.771 µM (active) | – | – | – | –
3 | COc1c2c(cc3nc4ccccc4nc13)CCC(C(C)(C)O)C2 (stereo not given) | > 100 µM (inactive) | 45.1 µM (inactive) | > 100 µM (inactive) | > 100 µM (inactive) | > 100 µM (inactive) | 73.6 µM (inactive) | 82.6 µM (inactive) | > 100 | > 100 µM (inactive) | > 100 µM (inactive) | > 100 µM (inactive) | > 100 µM (inactive) | > 100 µM (inactive) | > 100 µM (inactive) | 26.4 µM (inactive) | > 100 µM (inactive) | – | – | – | –
4 | C/C(=N\O)c1sc(-n2nc(-c3ccccc3)cc2-c2ccccc2)nc1C | 11.7 µM (inactive) | 12 µM (inactive) | > 10 µM (inactive) | 12.4 µM (inactive) | 12.2 µM (inactive) | 15.3 µM (inactive) | 11.7 µM (inactive) | 13.9 | 11.2 µM (inactive) | 12 µM (inactive) | > 10 µM (inactive) | 12.6 µM (inactive) | 11.9 µM (inactive) | 14.2 µM (inactive) | 14 µM (inactive) | > 10 µM (inactive) | – | – | – | –
5 | CCCCCCc1cc(C(=O)Nc2cccc(C(F)(F)F)c2)nc(N)n1 | > 100 µM (inactive) | > 100 µM (inactive) | > 100 µM (inactive) | > 100 µM (inactive) | > 100 µM (inactive) | > 100 µM (inactive) | > 100 µM (inactive) | > 100 | > 100 µM (inactive) | 63.4 µM (inactive) | > 100 µM (inactive) | > 100 µM (inactive) | > 100 µM (inactive) | > 100 µM (inactive) | > 100 µM (inactive) | > 100 µM (inactive) | – | – | – | –
6 | N#CC1=C(c2ccccc2)C(O)(c2ccccc2)NC1=O (stereo not given) | > 100 µM (inactive) | 68.1 µM (inactive) | 32.7 µM (inactive) | > 100 µM (inactive) | – | 44.2 µM (inactive) | > 100 µM (inactive) | > 100 | > 100 µM (inactive) | > 100 µM (inactive) | > 100 µM (inactive) | > 100 µM (inactive) | 37.5 µM (inactive) | > 100 µM (inactive) | > 100 µM (inactive) | 39.3 µM (inactive) | – | – | – | –
7 | CCOC(=O)C(=O)Nc1ccc(Cl)c(C(F)(F)F)c1 | > 100 µM (inactive) | > 100 µM (inactive) | > 100 µM (inactive) | > 100 µM (inactive) | > 100 µM (inactive) | > 100 µM (inactive) | – | > 100 | > 100 µM (inactive) | > 100 µM (inactive) | > 100 µM (inactive) | > 100 µM (inactive) | > 100 µM (inactive) | > 100 µM (inactive) | > 100 µM (inactive) | > 100 µM (inactive) | – | – | – | –
8 | O=C1c2c(nc3ccccc3c2-c2ccccc2)CN1Nc1ccccc1 | > 100 µM (inactive) | > 100 µM (inactive) | > 100 µM (inactive) | > 100 µM (inactive) | – | > 100 µM (inactive) | > 100 µM (inactive) | – | > 100 µM (inactive) | 53.8 µM (inactive) | > 100 µM (inactive) | > 100 µM (inactive) | – | > 100 µM (inactive) | 45.3 µM (inactive) | > 100 µM (inactive) | – | – | – | –
9 | CC(C)C1=Cc2ccc3c(c2C(=O)C1=O)CCCC3 | 1.08 µM (active) | 7.1 µM (inactive) | 2.92 µM (inactive) | 10.4 µM (inactive) | 17.9 µM (inactive) | 0.515 µM (active) | 17.1 µM (inactive) | 3.08 | 2.43 µM (inactive) | 21.4 µM (inactive) | 1.51 µM (inactive) | 1.95 µM (inactive) | 3.49 µM (inactive) | 5.96 µM (inactive) | 1.01 µM (active) | 13.9 µM (inactive) | 17.9 µM (inactive) | 16 µM (inactive) | 0.865 µM (active) | 0.227 µM (active)
10 | CC(C)=CC(C(O)c1ccccc1)S(=O)(=O)c1nccn1C (stereo not given) | > 100 µM (inactive) | > 100 µM (inactive) | > 100 µM (inactive) | > 100 µM (inactive) | > 100 µM (inactive) | > 100 µM (inactive) | > 100 µM (inactive) | > 100 | > 100 µM (inactive) | > 100 µM (inactive) | > 100 µM (inactive) | > 100 µM (inactive) | > 100 µM (inactive) | > 100 µM (inactive) | > 100 µM (inactive) | > 100 µM (inactive) | – | – | – | –
11 | COc1cc(CC(C(=O)O)C(=O)O)c(OC)cc1CC(C(=O)O)C(=O)O | > 100 µM (inactive) | > 100 µM (inactive) | > 100 µM (inactive) | > 100 µM (inactive) | > 100 µM (inactive) | > 100 µM (inactive) | > 100 µM (inactive) | > 100 | > 100 µM (inactive) | > 100 µM (inactive) | > 100 µM (inactive) | > 100 µM (inactive) | – | > 100 µM (inactive) | > 100 µM (inactive) | > 100 µM (inactive) | – | – | – | –
12 | CC(C)C(Sc1nc(-c2ccccc2)c(-c2ccccc2)[nH]1)C(=O)N/N=C/c1ccc([N+](=O)[O-])cc1 (stereo not given) | 9.98 µM (inactive) | 9.23 µM (inactive) | 22.8 µM (inactive) | 11.6 µM (inactive) | 17.3 µM (inactive) | 1.12 µM (inactive) | 10.9 µM (inactive) | 12.5 | 14.3 µM (inactive) | 20.8 µM (inactive) | 16 µM (inactive) | 14.5 µM (inactive) | 15.6 µM (inactive) | 27.3 µM (inactive) | 13.6 µM (inactive) | 20.1 µM (inactive) | – | – | – | –
13 | Cc1nn(C)cc1P(=S)(c1ccccc1)c1ccccc1 | 51.3 µM (inactive) | > 100 µM (inactive) | 24.8 µM (inactive) | 30.3 µM (inactive) | > 100 µM (inactive) | 22.5 µM (inactive) | 36.4 µM (inactive) | 32.4 | > 100 µM (inactive) | 70.3 µM (inactive) | > 100 µM (inactive) | 31.8 µM (inactive) | 61.7 µM (inactive) | 55 µM (inactive) | 18.6 µM (inactive) | > 100 µM (inactive) | – | – | – | –
14 | CCCCCCCCCc1cc(=O)c2ccc(O)cc2o1 | 41.7 µM (inactive) | 43.5 µM (inactive) | 60.3 µM (inactive) | 40.2 µM (inactive) | 44.6 µM (inactive) | 24.3 µM (inactive) | 46.9 µM (inactive) | – | 39.8 µM (inactive) | > 100 µM (inactive) | 22.3 µM (inactive) | 38.5 µM (inactive) | 42.2 µM (inactive) | 37.6 µM (inactive) | 11.6 µM (inactive) | > 100 µM (inactive) | – | – | – | –
15 | O=C1C2C3C=CC(C2C(=O)N1CN1CCOCC1)C1C2C(=O)N(CN4CCOCC4)C(=O)C2C31 (stereo not given) | 19.6 µM (inactive) | > 43.2 µM (inactive) | > 71.4 µM (inactive) | > 43.5 µM (inactive) | > 48 µM (inactive) | 30.8 µM (inactive) | > 44.7 µM (inactive) | > 42.4 | > 42.8 µM (inactive) | > 100 µM (inactive) | > 43.9 µM (inactive) | > 44.9 µM (inactive) | > 53.3 µM (inactive) | > 56 µM (inactive) | > 40.6 µM (inactive) | > 59.2 µM (inactive) | > 100 µM (inactive) | > 100 µM (inactive) | > 100 µM (inactive) | > 100 µM (inactive)
16 | COC(=O)C1=C(c2ccc3c(c2)OCO3)OC(c2ccc3c(c2)OCO3)C1 (stereo not given) | 38.4 µM (inactive) | 68.5 µM (inactive) | > 100 µM (inactive) | 28.3 µM (inactive) | – | 74.5 µM (inactive) | 65.2 µM (inactive) | > 100 | > 100 µM (inactive) | > 100 µM (inactive) | > 100 µM (inactive) | > 100 µM (inactive) | 80.9 µM (inactive) | 78.2 µM (inactive) | > 100 µM (inactive) | > 100 µM (inactive) | – | – | – | –
